Assay results taken from patent US11219213B2, “Fungicidal composition” (ADAMA HUIFENG (JIANGSU) LTD., priority 2016, dated 2022).
Where two headings read alike, the source gives them in different places.

Tested on: wheat leaf rust
Experiment: Toxicity test of benzisothiazolinone combined with flutriafol (bioassay)
Format: in vivo
Conditions: for ATI (actual toxicity index): (EC50 of standard/EC50 of test agent)*100, flutriafol as standard; for EC50: median inhibition concentration from control effect, least square method

| Structure (SMILES) | ATI (actual toxicity index) | EC50 [µg/mL] | EC50 (Puccinia triticina, read-out: EC50) [µg/mL] |
| --- | --- | --- | --- |
| O=c1[nH]sc2ccccc12 [Benzisothiazolinone, benzisothiazolinone] | 167.39 | 40.23 |  |
| OC(Cn1cncn1)(c1ccc(F)cc1)c1ccccc1F (stereo not shown) [Flutriafol, flutriafol] | 100.00 |  | 67.3 |
